In paper PMC7531286 (Phytomedicine, 2020):

Key:
[1] = target: SARS-CoV spike protein (S1 subunit, His tag) (Severe acute respiratory syndrome coronavirus, UniProt P59594); test: biochemical; type: binding
[2] = target: SARS-CoV-2 spike protein (S1 subunit, His tag) (Severe acute respiratory syndrome coronavirus 2, UniProt P0DTC2); test: biochemical; type: binding
[3] = target: MERS-CoV spike protein (S1 subunit, His tag) (Middle East respiratory syndrome-related coronavirus, UniProt K9N5Q8); test: biochemical; type: binding
[4] = tested on: mouse aorta smooth muscle cells (MASMCs); test: MTT cell toxicity assay, MASMCs; conditions: at high concentrations (100 μM)
[5] = target: SARS-CoV-2 S-RBD/ACE2 interaction (Severe acute respiratory syndrome coronavirus 2, UniProt P0DTC2); type: cell-based

Sequence of MERS-CoV spike protein (S1 subunit, His tag) (K9N5Q8 18-751 limits assumed): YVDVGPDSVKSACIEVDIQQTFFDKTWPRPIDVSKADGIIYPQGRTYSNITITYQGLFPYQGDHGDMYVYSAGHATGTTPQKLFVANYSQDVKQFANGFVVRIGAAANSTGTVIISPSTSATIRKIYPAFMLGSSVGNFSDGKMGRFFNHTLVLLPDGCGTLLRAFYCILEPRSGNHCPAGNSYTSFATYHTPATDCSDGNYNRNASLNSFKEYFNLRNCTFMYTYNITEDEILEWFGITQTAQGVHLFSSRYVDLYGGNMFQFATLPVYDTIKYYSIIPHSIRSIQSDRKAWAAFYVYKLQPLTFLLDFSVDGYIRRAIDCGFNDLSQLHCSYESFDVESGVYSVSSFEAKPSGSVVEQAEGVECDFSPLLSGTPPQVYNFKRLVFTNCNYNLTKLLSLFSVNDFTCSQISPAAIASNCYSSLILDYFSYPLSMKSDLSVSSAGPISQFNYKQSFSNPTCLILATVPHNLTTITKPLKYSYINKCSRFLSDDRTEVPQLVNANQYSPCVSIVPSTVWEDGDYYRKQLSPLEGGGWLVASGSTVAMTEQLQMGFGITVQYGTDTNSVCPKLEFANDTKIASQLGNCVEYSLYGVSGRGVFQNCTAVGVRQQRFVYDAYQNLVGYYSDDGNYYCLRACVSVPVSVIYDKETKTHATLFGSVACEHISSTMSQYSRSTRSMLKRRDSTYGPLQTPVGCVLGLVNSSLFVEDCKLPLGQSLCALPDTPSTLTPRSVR

Compound	Kd [1]	Kd [2]	Kd [3]	Cell toxicity to MASMCs [4]	Disruption of the SARS-CoV-2 S-RBD/ACE2 interaction in cells [5]
CC(C)=CCC[C@](C)(O[C@@H]1O[C@H](CO[C@@H]2O[C@H](CO)[C@@H](O)[C@H](O)[C@H]2O)[C@@H](O)[C@H](O)[C@H]1O)[C@H]1CC[C@]2(C)[C@@H]1[C@H](O)C[C@@H]1[C@@]3(C)CC[C@H](O[C@@H]4O[C@H](CO)[C@@H](O)[C@H](O)[C@H]4O[C@@H]4O[C@H](CO)[C@@H](O)[C@H](O)[C@H]4O)C(C)(C)[C@@H]3CC[C@]12C [ZZY-9, Ginsenoside Rb1]	29.7 µM	0.47 µM	3.45 µM		
CC(C)=CCC[C@](C)(O[C@@H]1O[C@H](CO[C@@H]2OC[C@@H](O)[C@H](O)[C@H]2O)[C@@H](O)[C@H](O)[C@H]1O)[C@H]1CC[C@]2(C)[C@@H]1[C@H](O)C[C@@H]1[C@@]3(C)CC[C@H](O[C@@H]4O[C@H](CO)[C@@H](O)[C@H](O)[C@H]4O[C@@H]4O[C@H](CO)[C@@H](O)[C@H](O)[C@H]4O)C(C)(C)[C@@H]3CC[C@]12C [ZZY-13, Ginsenoside Rb3]	2 µM	1 µM	0.25 µM	no cell toxicity	could disrupt
CC1(C)[C@@H](O[C@H]2O[C@H](C(=O)O)[C@@H](O)[C@H](O)[C@H]2O[C@@H]2O[C@H](C(=O)O)[C@@H](O)[C@H](O)[C@H]2O)CC[C@]2(C)[C@H]3C(=O)C=C4[C@@H]5C[C@@](C)(C(=O)O)CC[C@]5(C)CC[C@@]4(C)[C@]3(C)CC[C@@H]12 [ZZY-44, Glycyrrhizic acid]	66.8 µM		0.47 µM	no cell toxicity	could disrupt
COc1ccc2cc3[n+](cc2c1OC)CCc1cc2c(cc1-3)OCO2 [ZZY-54, Berberine Chloride]	23.9 µM	1.24 µM	7.39 µM		
